Key:
recombinant human 5-HT1A = target: T1, recombinant human 5-HT1A (Homo sapiens, UniProt P08908); assay: radioligand binding to serotonin receptor 5-HT1A ([3H] 8-OH-DPAT)
T1 construct: expressed in transfected cells; host or cells: CHO
T1 sequence (P08908 1-422): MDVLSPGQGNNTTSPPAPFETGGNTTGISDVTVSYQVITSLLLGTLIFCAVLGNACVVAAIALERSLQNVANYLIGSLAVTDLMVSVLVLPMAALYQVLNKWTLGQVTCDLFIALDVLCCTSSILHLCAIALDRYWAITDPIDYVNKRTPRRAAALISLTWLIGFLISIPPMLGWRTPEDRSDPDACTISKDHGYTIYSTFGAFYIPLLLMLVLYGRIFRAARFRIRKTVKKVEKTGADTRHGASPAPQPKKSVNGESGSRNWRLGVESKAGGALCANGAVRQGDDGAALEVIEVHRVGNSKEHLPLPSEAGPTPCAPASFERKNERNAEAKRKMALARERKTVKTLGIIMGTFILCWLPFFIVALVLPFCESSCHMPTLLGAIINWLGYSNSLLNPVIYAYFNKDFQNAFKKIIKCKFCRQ
From the text: J Pharmacol Exp Ther. 306(1): 301-309, 2003]. […] Metergoline is used as positive control.

mice = assay: Mice Training in Morris Water Maze (Scopolamine); format: in vivo; conditions: unitary introduction of active ingredient
Procedure: Mice Training in Morris Water Maze. A round pool which was filled with water at 20-22° C. was used. A round ceramic platform of 14 cm height was placed in the pool. Animals's behavior was registered with automated computer videosystem in combination with software package of movement analysis Any-maze (Stoelting Co., US). Before testing mice suitable for training were selected. That was done by placing the platform 1 cm above the water level and putting an animal on the platform for 20 seconds. Then the mouse was sunk into the water on the opposite side of the pool, allowed to find the platform and climbed it within 60 seconds, where it was left for additional 20 seconds. After that the mouse was repeatedly immersed into water on the opposite side of the pool and allowed to look for platform. If it failed in finding the platform within 60 seconds the experimentator helped it to find the platform and climb it. If the mice could not find the platform itself in two consecutive attempts it was excluded from experiment.
During the next two days the platform was placed 0.5 centimeter lower the water level. Every day the mice were given four attempts for finding the platform within 60 seconds. The time interval between the attempts was 20 seconds, during which the mice stayed on the platform. Every day before the first attempt mouse was placed on the platform for 20 seconds. The time needed for finding and climbing the platform was registered. The animals were sunk in water in 3 different places on the side of the pool opposite to platform. On each day of two-day testing 35-40 minutes before the beginning of training the mice were injected intraintestinally with physiological solution, Scopolamine or Scopolamine in combination with investigated compound. At least 8 animals were used in each group.
On the third day the platform was removed and each animal was placed one time in the pool for a period of 60 seconds. The time each mouse spent in the area where the platform had been located during the previous days was registered. This time interval was regarded as a measure of effectiveness of training fulfilled during the previous two days. The testing was carried out during the day time in isolated laboratory using “white noise” at level of about 70 decibel above the human hearing threshold.

Compound	5-HT1A % inhibition (recombinant human 5-HT1A; 10 μM ligand)	memory disorders caused by Scopolamine in Morris water maze (mice)	inhibition at 1 µM (recombinant human 5-HT1A; ligand concentration 1 μM)
Cc1ccc2c(c1)[C@@H]1CN(C)CCC[C@@H]1N2CCc1ccc(C)nc1.Cl.Cl.Cl (relative stereo) [1.6.1(2)•3HCl]	−9%	–	–
Cc1ccc2c(c1)c1c(n2CCc2ccccn2)CCN(C)C1.Cl.Cl [1.1.2(2-3)•2HCl]	–	decreasing memory disorders coused by Scopalomine	53%
